The target in one assay is PTGR2 (Homo sapiens, UniProt Q8N8N7). In words: PPARγ luciferase reporter assay in PTGR2-transfected HEK293T cells (15-keto-PGE2-dependent). It counts as cell-based. The conditions noted are these: cells recombinantly expressing PTGR2. As to the method: HEK293T cells were transiently co-transfected using Polyethylenimine (Sigma) with a UAS-Luciferase reporter and a vector expressing the heterologous GAL4 DNA binding domain (DBD) or a GAL4 DNA binding domain::PPARγ ligand binding domain (LBD) chimeric protein, and full-length PTGR2. 24 hr after transfection, cells were treated either with vehicle (DMSO), 15k-PGE2 (20 μM), or fragment compounds. Rosiglitazone (2 μM), a synthetic PPARγ ligand, was used as control. 16 hr after incubation, cells were lysed in Cell Culture Lysis Reagent (Promega) and luciferase activity measured using the Luciferase Assay System (Promega).
A general note: In a reporter assay the amount or activity of a reporter protein is the signal.

Another assay concerns the target T1, cathepsin B (CTSB) (Homo sapiens, UniProt P07858).
T1 construct: endogenous in cells; host or cells: HEK293T
Kind of assay: Mapping and competition of FFF probe-modified peptide on cathepsin B (CTSB). It counts as binding. The conditions noted are these: active-site proximal peptide. The protocol:
(§1) Preparation and analysis was adapted from methods previously reported. In brief, for global mapping of fragment probe-modified peptides, separate 10 cm dishes of cells were treated with probes (200-250 μM) in 3.0 mL of DMEM (serum-free) and (if applicable) competitor ligands, proteomes harvested and subjected to click chemistry conditions with either light or heavy isotopically labeled biotin-TEV-azide (10 μL of 5 mM stocks in DMSO, final concentration=100 μM), TCEP, ligand and CuSO4 as detailed above. The samples were allowed to react for 1 h at which point the samples were centrifuged (16,000 g, 5 min, 4° C.). The resulting pellets were sonicated in ice-cold methanol (500 μL) and the resuspended light- and heavy-labeled samples were then combined and centrifuged (16,000 g, 5 min, 4° C.). The pellets were then solubilized in PBS containing 1.2% SDS (1 mL) with sonication and heating (5 min, 95° C.). Samples were transferred to falcon tubes containing DPBS (5 mL), to which a 100 μL of streptavidin-agarose beads slurry was added. […]
(§2) The resulting probe-modified peptides were collected for MS analysis, which was performed as described above with differences in the salt bumps applied in the chromatographic gradients which in this case were 0%, 30%, 60%, 90% and 100% NH4OAc (500 μM). […] The isoTOP ratios for probe labeled peptides were quantified using the in-house software CIMAGE. […]

The next assay deals with T2, YWHAE (Homo sapiens, UniProt P62258).
T2 construct: endogenous in cells; host or cells: human cells (HEK293T; a subset of probes also in K562)
T2 sequence (P62258 1-255): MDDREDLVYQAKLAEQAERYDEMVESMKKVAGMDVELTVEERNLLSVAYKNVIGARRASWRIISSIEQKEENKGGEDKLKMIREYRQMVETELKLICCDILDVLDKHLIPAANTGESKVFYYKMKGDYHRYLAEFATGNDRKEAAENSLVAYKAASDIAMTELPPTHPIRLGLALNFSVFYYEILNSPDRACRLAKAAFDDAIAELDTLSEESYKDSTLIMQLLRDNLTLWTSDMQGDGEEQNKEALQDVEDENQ
In words: Mapping of FFF probe-modified peptide on YWHAE. It counts as binding. The conditions noted are these: for Labeled Peptide (residues) of YWHAE 14-3-3 protein epsilon: P62258, PDB 3UBW. The protocol:
as §1, with “added. After incubation, the beads (3 hr) were pelleted by centrifugation (1,400 g, 3 min) and were washed (2×10 mL PBS and 2×10 mL water). The beads were transferred to eppendorf tubes with 1 mL DPBS, centrifuged (1,400 g, 3 min), and resuspended in PBS containing 6 M urea. To this was added 10 mM DTT (25 μL of a 200 mM stock in water) and the beads were incubated at 65° C. for 15 mins. 20 mM iodoacetamide (25 μL of a 400 mM stock in water) was then added and allowed to react at 37° C. for 30 mins with shaking. The bead mixture was diluted with 900 μL PBS, pelleted by centrifugation (1,400 g, 3 min), and resuspended in 200 μL 2M urea (DPBS) containing trypsin and CaCl2 as described above.” for “added.”
as §2

Another assay deals with T3, BAX (Homo sapiens, UniProt Q07812).
T3 construct: endogenous in cells; host or cells: human cells (HEK293T; a subset of probes also in K562)
In words: Mapping of FFF probe-modified peptide on BAX. It counts as binding. The conditions noted are these: for Labeled Peptide: residues of probe-labeled peptide. The protocol:
as §1, with “added. After incubation, the beads (3 hr) were pelleted by centrifugation (1,400 g, 3 min) and were washed (2×10 mL PBS and 2×10 mL water). The beads were transferred to eppendorf tubes with 1 mL DPBS, centrifuged (1,400 g, 3 min), and resuspended in PBS containing 6 M urea. To this was added 10 mM DTT (25 μL of a 200 mM stock in water) and the beads were incubated at 65° C. for 15 mins. 20 mM iodoacetamide (25 μL of a 400 mM stock in water) was then added and allowed to react at 37° C. for 30 mins with shaking. The bead mixture was diluted with 900 μL PBS, pelleted by centrifugation (1,400 g, 3 min), and resuspended in 200 μL 2M urea (DPBS) containing trypsin and CaCl2 as described above.” for “added.”
as §2

The record followed here is patent publication US11535597B2, “Photoreactive ligands and uses thereof” (The Scripps Research Institute, priority 2017, dated 2022).

Entries after “also recorded” stand apart in the source; their conditions may differ.

T3 sequence (Q07812 whole entry): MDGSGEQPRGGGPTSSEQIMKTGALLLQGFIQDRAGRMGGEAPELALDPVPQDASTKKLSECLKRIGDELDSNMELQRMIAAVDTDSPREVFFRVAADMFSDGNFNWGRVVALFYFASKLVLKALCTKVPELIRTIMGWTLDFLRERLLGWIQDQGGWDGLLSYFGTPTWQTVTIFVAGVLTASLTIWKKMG
Sequence of PTGR2 (Q8N8N7 whole entry, the tested form may be a part): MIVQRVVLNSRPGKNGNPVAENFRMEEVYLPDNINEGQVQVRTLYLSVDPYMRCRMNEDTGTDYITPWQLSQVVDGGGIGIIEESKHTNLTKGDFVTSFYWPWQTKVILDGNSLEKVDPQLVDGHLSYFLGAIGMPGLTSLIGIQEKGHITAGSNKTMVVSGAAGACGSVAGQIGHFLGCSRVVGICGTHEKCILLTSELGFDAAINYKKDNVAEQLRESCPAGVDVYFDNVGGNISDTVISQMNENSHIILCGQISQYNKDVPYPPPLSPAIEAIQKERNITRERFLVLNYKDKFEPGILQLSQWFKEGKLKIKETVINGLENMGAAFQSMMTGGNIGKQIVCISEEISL

`COc1ccccc1N1CCN(C(=O)Cc2ccccc2)CC1` [Compound 22, 1-(4-(2-Methoxyphenyl)piperazin-1-yl)-2-phenylethan-1-one]: on PTGR2, the “15-keto-PGE2-dependent PPARγ transcriptional activity” value is “increased; also recorded: concentration-dependent rescue”.

As to `C#CCCC1(CCC(=O)Nc2ccc(C3CCNCC3)cc2)N=N1` [probe 9, 3-(3-(But-3-yn-1-yl)-3H-diazirin-3-yl)-N-(4-(piperidin-4-yl)phenyl)propanamide], the “probe-modified peptide in CTSB” value on cathepsin B (CTSB) was “aa 315-332”.

`C#CCCC1(CCC(=O)N2CCCCC2Cc2ccccc2)N=N1` (centres unmarked) [probe 13, 1-(2-Benzylpiperidin-1-yl)-3-(3-(but-3-yn-1-yl)-3H-diazirin-3-yl)propan-1-one]: the “Labeled Peptide (residues) of YWHAE 14-3-3 protein epsilon” value is recorded as 197-215 on YWHAE (peptide AAFDDAIAELDTLSEESYK) and 143-153 at YWHAE (peptide EAAENSLVAYK). Further, on YWHAE (lines the primary interaction cleft for MLF1), the “probe-modified peptide in YWHAE” value is reported as “aa 197-215”. In addition, the “probe-modified peptide in BAX” value at BAX (groove that binds BH3-domain activators Bim and Bid) was “aa 66-79”. For the same compound, the “Labeled Peptide” value at BAX (protein BAX (Q07812)) and at BAX (protein BAX Apoptosis regulator BAX) was 66-78 in each case.
